Laboratory results taken from PMC12096176 (RSC Chemical Biology, 2025).

Experiments:
[1] = test system: MOR; format: binding; settings: for Selectivity D/M: ratio Ki DOR / Ki MOR; for Selectivity K/M: ratio Ki KOR / Ki MOR
[2] = molecular target: KOR (Homo sapiens, UniProt P41145); format: binding
[3] = molecular target: DOR (Homo sapiens, UniProt P41143); format: binding
[4] = molecular target: MOR (Mus musculus, UniProt P42866); test: MOR [35S]GTPγS functional assay, MOR-CHO membranes; format: biochemical; settings: for Emax: read-out: MOR [35S]GTPγS Emax, relative to maximal stimulation produced by DAMGO; for MOR [35S]GTPγS Emax: relative to maximal stimulation produced by DAMGO
[5] = test system: Swiss Webster mice; test: Warm-water tail immersion assay, antagonism of morphine antinociception; settings: single dose 10 mg kg^−1 s.c. in the presence of morphine 10 mg kg^−1 s.c.
[6] = test system: Swiss Webster mice; test: Warm-water tail immersion assay, agonism; settings: single dose 10 mg kg^−1 s.c., 20 min after injection

Row | Structure (SMILES) | Selectivity D/M [1] | Selectivity K/M [1] | Ki [2] [nM] | Ki [3] [nM] | EC50 [4] [nM] | Emax [4] [%] | ability to reverse the antinociceptive effects of morphine [5] | %MPE (antinociception) [6] [%] | MOR [35S]GTPγS Emax [4] [%]
1 | O=C(N[C@@H]1CC[C@@]2(O)[C@H]3Cc4ccc(O)c5c4[C@@]2(CCN3CC2CC2)[C@H]1O5)c1cccc2c(-c3ccccc3)coc12 [Compound 11, N-((4R,4aS,7R,7aR,12bS)-3-(Cyclopropylmethyl)-4a,9-dihydroxy-2,3,4,4a,5,6,7,7a-octahydro-1H-4,12-methanobenzofuro[3,2-e]isoquinolin-7-yl)-3-phenylbenzofuran-7-carboxamide] | 123 | 110 | 19.7 ± 2.2 | 22.1 ± 3.2 | 0.56 ± 0.07 | ~10 | considerable antagonism activity |  | 
2 | O=C(N[C@H]1CC[C@@]2(O)[C@H]3Cc4ccc(O)c5c4[C@@]2(CCN3CC2CC2)[C@H]1O5)c1cccc2c(-c3ccncc3)coc12 [Compound 6, N-((4R,4aS,7S,7aR,12bS)-3-(Cyclopropylmethyl)-4a,9-dihydroxy-2,3,4,4a,5,6,7,7a-octahydro-1H-4,12-methanobenzofuro[3,2-e]isoquinolin-7-yl)-3-(pyridin-4-yl)benzofuran-7-carboxamide] | 41 | 3.7 | 8.7 ± 1.5 | 97.7 ± 16.3 | 12 ± 2.1 | 14.8 ± 1.6 |  |  | 
3 | Cc1coc2c(C(=O)N[C@@H]3CC[C@@]4(O)[C@H]5Cc6ccc(O)c7c6[C@@]4(CCN5CC4CC4)[C@H]3O7)cccc12 [Compound 10, N-((4R,4aS,7R,7aR,12bS)-3-(Cyclopropylmethyl)-4a,9-dihydroxy-2,3,4,4a,5,6,7,7a-octahydro-1H-4,12-methanobenzofuro[3,2-e]isoquinolin-7-yl)-3-methylbenzofuran-7-carboxamide] | 57 | 1.9 | 0.44 ± 0.08 | 13.1 ± 1.1 | 0.81 ± 0.14 | 32.7 ± 3.3 |  | 54.2 | 
4 | Cl.O=C(N[C@@H]1CC[C@@]2(O)[C@H]3Cc4ccc(O)c5c4[C@@]2(CCN3CC2CC2)[C@H]1O5)c1cccc2c(Br)coc12 [Compound 8, 3-Bromo-N-((4R,4aS,7R,7aR,12bS)-3-(cyclopropylmethyl)-4a,9-dihydroxy-2,3,4,4a,5,6,7,7a-octahydro-1H-4,12-methanobenzofuro[3,2-e]isoquinolin-7-yl)benzofuran-7-carboxamide hydrochloride] | 27 | 1.0 | 0.21 ± 0.01 | 5.34 ± 0.99 | 0.49 ± 0.08 |  |  | 90.9 | 42.9 ± 3.9
5 | Cc1coc2c(C(=O)N[C@H]3CC[C@@]4(O)[C@H]5Cc6ccc(O)c7c6[C@@]4(CCN5CC4CC4)[C@H]3O7)cccc12 [Compound 4, N-((4R,4aS,7S,7aR,12bS)-3-(Cyclopropylmethyl)-4a,9-dihydroxy-2,3,4,4a,5,6,7,7a-octahydro-1H-4,12-methanobenzofuro[3,2-e]isoquinolin-7-yl)-3-methylbenzofuran-7-carboxamide] | 130 | 23 | 15.7 ± 1.3 | 87 ± 5.3 | 4.52 ± 0.39 | 23.5 ± 1.6 |  |  | 
6 | O=C(N[C@H]1CC[C@@]2(O)[C@H]3Cc4ccc(O)c5c4[C@@]2(CCN3CC2CC2)[C@H]1O5)c1cccc2c(-c3ccccc3)coc12 [Compound 5, N-((4R,4aS,7S,7aR,12bS)-3-(Cyclopropylmethyl)-4a,9-dihydroxy-2,3,4,4a,5,6,7,7a-octahydro-1H-4,12-methanobenzofuro[3,2-e]isoquinolin-7-yl)-3-phenylbenzofuran-7-carboxamide] | 173 | 24 | 33.8 ± 5.6 | 238 ± 28 | 27.4 ± 5 | 17.3 ± 1 |  |  | 
7 | O=C(N[C@@H]1CC[C@@]2(O)[C@H]3Cc4ccc(O)c5c4[C@@]2(CCN3CC2CC2)[C@H]1O5)c1cccc2c(Cl)coc12 [Compound 9, 3-Chloro-N-((4R,4aS,7R,7aR,12bS)-3-(cyclopropylmethyl)-4a,9-dihydroxy-2,3,4,4a,5,6,7,7a-octahydro-1H-4,12-methanobenzofuro[3,2-e]isoquinolin-7-yl)benzofuran-7-carboxamide] | 37 | 1.1 | 0.16 ± 0.02 | 5.17 ± 1.13 | 0.35 ± 0.07 | 51.2 ± 3.4 |  | 84.5 | 
8 | O=C(N[C@H]1CC[C@@]2(O)[C@H]3Cc4ccc(O)c5c4[C@@]2(CCN3CC2CC2)[C@H]1O5)c1cccc2c(Cl)coc12 [Compound 3, 3-Chloro-N-((4R,4aS,7S,7aR,12bS)-3-(cyclopropylmethyl)-4a,9-dihydroxy-2,3,4,4a,5,6,7,7a-octahydro-1H-4,12-methanobenzofuro[3,2-e]isoquinolin-7-yl)benzofuran-7-carboxamide] | 277 | 34 | 17.1 ± 1.3 | 138 ± 24 | 2.65 ± 0.47 | 21.6 ± 0.8 |  |  | 
9 | Cl.O=C(N[C@H]1CC[C@@]2(O)[C@H]3Cc4ccc(O)c5c4[C@@]2(CCN3CC2CC2)[C@H]1O5)c1cccc2c(Br)coc12 [Compound 2, 3-Bromo-N-((4R,4aS,7S,7aR,12bS)-3-(cyclopropylmethyl)-4a,9-dihydroxy-2,3,4,4a,5,6,7,7a-octahydro-1H-4,12-methanobenzofuro[3,2-e]isoquinolin-7-yl)benzofuran-7-carboxamide hydrochloride] | 154 | 30 | 17.3 ± 1.2 | 87.8 ± 5.5 | 7.37 ± 2.32 |  |  |  | 16.0 ± 4.0
10 | O=C(N[C@@H]1CC[C@@]2(O)[C@H]3Cc4ccc(O)c5c4[C@@]2(CCN3CC2CC2)[C@H]1O5)c1cccc2c(-c3ccncc3)coc12 [Compound 12, N-((4R,4aS,7R,7aR,12bS)-3-(Cyclopropylmethyl)-4a,9-dihydroxy-2,3,4,4a,5,6,7,7a-octahydro-1H-4,12-methanobenzofuro[3,2-e]isoquinolin-7-yl)-3-(pyridin-4-yl)benzofuran-7-carboxamide] | 213 | 35 | 7.34 ± 0.95 | 45 ± 9.3 | 1.2 ± 0.38 | ~10 | considerable antagonism activity |  | 
